Reference: ChEMBL document CHEMBL1201862, “PubChem BioAssay data set” (2004)
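Interpolation was linear, between the two tested concentrations surrounding the appropriate level; five concentrations were tested over 48 hours in 96-well plates. GI50 is the concentration that inhibits growth by half.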 Activity calls are given as the source filed them. No stated cut-off is given here; in the data, active = GI50 up to about 1.1 µM and inactive = higher.

How the values were obtained:
Assay in all cases: inhibition of tumour cell growth, NCI panel, 48 h
Malme-3M = system: Malme-3M
SNB-75 = system: SNB-75
EKVX = system: EKVX
LOX IMVI = system: LOX IMVI
HOP-92 = system: HOP-92
SN12C = system: SN12C
M14 = system: M14
NCI-H522 = system: NCI-H522
SF-268 = system: SF-268
SR = system: SR
NCI-H23 = system: NCI-H23
A549 = system: A549
OVCAR-3 = system: OVCAR-3
SF-539 = system: SF-539
HCC 2998 = system: HCC 2998
UACC-62 = system: UACC-62
SF-295 = system: SF-295
IGROV-1 = system: IGROV-1

Measured: GI50

COc1cc(C=C2C(=O)NC(=O)NC2=O)cc(OC)c1OC
inactive: Malme-3M > 100 µM | SNB-75 80.2 µM | EKVX > 100 µM | LOX IMVI > 100 µM | HOP-92 > 100 µM | SN12C > 100 µM | M14 > 100 µM | NCI-H522 > 100 µM | SF-268 > 100 µM | SR > 100 µM | NCI-H23 > 100 µM | A549 > 100 µM | OVCAR-3 > 100 µM | SF-539 > 100 µM | HCC 2998 > 100 µM | UACC-62 > 100 µM | SF-295 > 100 µM

CNC(=O)CN(CC(N)=O)C(N)=O
inactive: Malme-3M > 100 µM | SNB-75 77.3 µM | EKVX > 100 µM | LOX IMVI > 100 µM | HOP-92 > 100 µM | M14 > 100 µM | NCI-H522 > 100 µM | SF-268 > 100 µM | SR > 100 µM | IGROV-1 > 100 µM | NCI-H23 > 100 µM | A549 > 100 µM | OVCAR-3 > 100 µM | SF-539 > 100 µM | HCC 2998 > 100 µM | UACC-62 > 100 µM | SF-295 > 100 µM

C[C@H](O)CCC(=O)c1ccoc1
inactive: Malme-3M > 100 µM | SNB-75 > 34.5 µM | EKVX > 100 µM | LOX IMVI > 100 µM | HOP-92 > 100 µM | SN12C > 100 µM | M14 > 100 µM | NCI-H522 > 100 µM | SF-268 > 100 µM | SR > 100 µM | IGROV-1 > 100 µM | NCI-H23 > 100 µM | A549 > 100 µM | OVCAR-3 > 100 µM | SF-539 > 100 µM | HCC 2998 > 66.1 µM | UACC-62 > 100 µM | SF-295 > 100 µM

CN(C)CCCN1CCc2c([nH]c3ccccc23)C1c1cccnc1 (stereo not given)
inactive: Malme-3M > 100 µM | SNB-75 > 100 µM | EKVX > 100 µM | LOX IMVI > 100 µM | HOP-92 33.8 µM | SN12C > 100 µM | M14 > 100 µM | NCI-H522 > 100 µM | SR > 100 µM | IGROV-1 > 100 µM | NCI-H23 > 100 µM | A549 > 100 µM | OVCAR-3 > 100 µM | SF-539 > 100 µM | HCC 2998 > 100 µM | UACC-62 > 100 µM | SF-295 > 100 µM

NC(=S)N1N=C2c3ccccc3CC[C@@H]2[C@@H]1c1ccccc1
inactive: Malme-3M 5.4 µM | SNB-75 3.62 µM | EKVX 16.3 µM | LOX IMVI 5.86 µM | HOP-92 11.2 µM | SN12C 5.05 µM | M14 4.4 µM | NCI-H522 1.5 µM | SF-268 10.2 µM | SR 1.47 µM | IGROV-1 12.6 µM | NCI-H23 4.68 µM | A549 8.59 µM | OVCAR-3 2.92 µM | SF-539 4.88 µM | HCC 2998 6.78 µM | UACC-62 4.74 µM | SF-295 3.13 µM

Nc1n/c(=N\c2ccccc2)ss1
inactive: Malme-3M > 100 µM | SNB-75 > 100 µM | EKVX > 100 µM | LOX IMVI 51.4 µM | HOP-92 > 100 µM | SN12C > 100 µM | M14 > 100 µM | NCI-H522 > 100 µM | SF-268 > 100 µM | SR > 100 µM | IGROV-1 > 100 µM | NCI-H23 > 100 µM | A549 > 100 µM | OVCAR-3 > 100 µM | SF-539 > 100 µM | HCC 2998 > 100 µM | UACC-62 > 100 µM | SF-295 > 100 µM

O=C(c1ccccc1)C1S(=O)(=O)OCCOS1(=O)=O
inactive: Malme-3M > 100 µM | SNB-75 > 100 µM | EKVX > 100 µM | LOX IMVI > 100 µM | HOP-92 > 100 µM | SN12C > 100 µM | M14 > 100 µM | NCI-H522 > 100 µM | SF-268 > 100 µM | SR > 100 µM | IGROV-1 > 100 µM | NCI-H23 > 100 µM | A549 > 100 µM | OVCAR-3 > 100 µM | SF-539 > 100 µM | HCC 2998 > 100 µM | UACC-62 > 100 µM | SF-295 > 100 µM

CCOC(=O)CC(=O)Sc1ccccc1
inactive: Malme-3M 25.6 µM | EKVX 19 µM | LOX IMVI 12.8 µM | HOP-92 27.5 µM | SN12C 10.3 µM | M14 14.2 µM | NCI-H522 11.8 µM | SF-268 3.25 µM | SR 14.1 µM | IGROV-1 12.5 µM | NCI-H23 24.5 µM | A549 14.6 µM | OVCAR-3 17.3 µM | SF-539 14 µM | HCC 2998 23.9 µM | UACC-62 16 µM | SF-295 29.6 µM

O=C1C2C=CC(n3[nH]c(=O)n(Cc4ccccc4)c3=O)CC2C(=O)N1c1ccc(Br)cc1 (stereo not given)
inactive: Malme-3M > 100 µM | SNB-75 47.1 µM | EKVX > 100 µM | LOX IMVI > 100 µM | HOP-92 > 100 µM | SN12C > 100 µM | M14 > 100 µM | NCI-H522 > 100 µM | SF-268 > 100 µM | SR > 100 µM | IGROV-1 > 100 µM | NCI-H23 > 100 µM | A549 > 100 µM | OVCAR-3 > 100 µM | SF-539 > 100 µM | HCC 2998 > 100 µM | UACC-62 > 100 µM | SF-295 > 100 µM

C=C(CN(C)C)C(=O)c1ccccc1Cl
inactive: Malme-3M 16.2 µM | SNB-75 41.8 µM | EKVX > 52.1 µM | LOX IMVI 17.8 µM | HOP-92 17.1 µM | SN12C 20.9 µM | M14 19 µM | NCI-H522 6.53 µM | SF-268 21.9 µM | SR 10.8 µM | IGROV-1 > 47 µM | NCI-H23 22.9 µM | A549 > 100 µM | OVCAR-3 19.7 µM | SF-539 24.4 µM | HCC 2998 26.5 µM | UACC-62 18.3 µM | SF-295 > 65.3 µM

O=c1[nH]c(=O)n(C2OC(CO)C(O)C2O)cc1OCC(F)(F)F (stereo not given)
inactive: Malme-3M > 100 µM | SNB-75 > 100 µM | EKVX > 100 µM | LOX IMVI > 100 µM | HOP-92 > 100 µM | SN12C > 100 µM | M14 > 100 µM | NCI-H522 > 100 µM | SF-268 > 100 µM | SR > 100 µM | IGROV-1 > 100 µM | NCI-H23 > 100 µM | A549 > 100 µM | OVCAR-3 > 100 µM | SF-539 > 100 µM | HCC 2998 > 100 µM | UACC-62 > 100 µM | SF-295 > 100 µM

CC(=O)OC(C[C@H](C)[C@@H]1CC[C@]2(C)C3=CCC4C(C)(C)C(=O)CC[C@]4(C)C3CCC12C)C1OC1(C)C (stereo not given in full)
inactive: Malme-3M 25.1 µM | EKVX 32.7 µM | LOX IMVI 27.9 µM | HOP-92 11.9 µM | M14 20.1 µM | NCI-H522 12.9 µM | SF-268 21.6 µM | SR > 10 µM | IGROV-1 21.9 µM | NCI-H23 20.5 µM | A549 21.2 µM | OVCAR-3 88.9 µM | SF-539 41.4 µM | HCC 2998 16.4 µM | UACC-62 23.4 µM | SF-295 22.7 µM
